Like-named read-outs stand apart in the source and are kept apart here.
How the values were obtained:
[1] = test system: CYP3A5; settings: human liver microsomes of CYP3A5*1/*1 (EM) donors; cited from earlier work
[2] = format: in vivo, human; settings: part 1
[3] = test system: HIV‐1; assay: Study 1; format: in vivo; settings: for subjects who discontinued the study because of lack of efficacy: through week 96, maraviroc
[4] = test system: HIV; settings: viral inhibition; cited from earlier work
[5] = test system: HIV‐1; settings: 48 weeks, cited from earlier work
[6] = test system: HIV‐1; settings: study 1; cited from earlier work
[7] = week 48, efavirenz 600 mg once daily + zidovudine/lamivudine, EMs (2 CYP3A5*1 alleles)
[8] = week 48, efavirenz 600 mg once daily + zidovudine/lamivudine, IMs (1 CYP3A5*1 allele)
[9] = week 48, efavirenz 600 mg once daily + zidovudine/lamivudine, PMs (no CYP3A5*1 alleles)
[10] = week 48, efavirenz 600 mg once daily + zidovudine/lamivudine, overall
[11] = week 96, efavirenz 600 mg once daily + zidovudine/lamivudine, EMs (2 CYP3A5*1 alleles)
[12] = week 96, efavirenz 600 mg once daily + zidovudine/lamivudine, IMs (1 CYP3A5*1 allele)
[13] = week 96, efavirenz 600 mg once daily + zidovudine/lamivudine, PMs (no CYP3A5*1 alleles)
[14] = week 96, efavirenz 600 mg once daily + zidovudine/lamivudine, overall
[15] = week 48, maraviroc 300 mg twice daily + zidovudine/lamivudine, EMs (2 CYP3A5*1 alleles)
[16] = week 48, maraviroc 300 mg twice daily + zidovudine/lamivudine, IMs (1 CYP3A5*1 allele)
[17] = week 48, maraviroc 300 mg twice daily + zidovudine/lamivudine, PMs (no CYP3A5*1 alleles)
[18] = week 48, maraviroc 300 mg twice daily + zidovudine/lamivudine, overall
[19] = week 96, maraviroc 300 mg twice daily + zidovudine/lamivudine, EMs (2 CYP3A5*1 alleles)
[20] = week 96, maraviroc 300 mg twice daily + zidovudine/lamivudine, IMs (1 CYP3A5*1 allele)
[21] = week 96, maraviroc 300 mg twice daily + zidovudine/lamivudine, PMs (no CYP3A5*1 alleles)
[22] = week 96, maraviroc 300 mg twice daily + zidovudine/lamivudine, overall

Cc1nnc(C(C)C)n1C1C[C@H]2CC[C@@H](C1)N2CC[C@H](NC(=O)[C@H]1CCC(F)(F)[C@H](O)C1)c1ccccc1 (stereo partly drawn) [(1S,3R)-3-hydroxymaraviroc, (1S,3R)‐3‐hydroxymaraviroc]
CYP3A5 contribution to the formation of this metabolite [1]: minimal
mean MRAUC12 across all cohorts [2]: comparable

O=C1Nc2ccc(Cl)cc2[C@@](C#CC2CC2)(C(F)(F)F)O1 [Efavirenz]
Proportion of subjects with HIV-1 RNA <50 copies/mL [3, 7]: 19/30 (63.3) %
Proportion of subjects with HIV-1 RNA <400 copies/mL [3, 7]: 20/30 (66.7) %
Proportion of subjects with HIV-1 RNA <50 copies/mL [3, 8]: 68/96 (70.8) %
Proportion of subjects with HIV-1 RNA <400 copies/mL [3, 8]: 71/96 (74.0) %
Proportion of subjects with HIV-1 RNA <50 copies/mL [3, 9]: 113/164 (68.9) %
Proportion of subjects with HIV-1 RNA <400 copies/mL [3, 9]: 119/164 (72.6) %
Proportion of subjects with HIV-1 RNA <50 copies/mL [3, 10]: 200/290 (69.0) %
Proportion of subjects with HIV-1 RNA <400 copies/mL [3, 10]: 210/290 (72.4) %
Proportion of subjects with HIV-1 RNA <50 copies/mL [3, 11]: 17/30 (56.7) %
Proportion of subjects with HIV-1 RNA <400 copies/mL [3, 11]: 17/30 (56.7) %
Proportion of subjects with HIV-1 RNA <50 copies/mL [3, 12]: 62/96 (64.6) %
Proportion of subjects with HIV-1 RNA <400 copies/mL [3, 12]: 63/96 (65.6) %
Proportion of subjects with HIV-1 RNA <50 copies/mL [3, 13]: 104/164 (63.4) %
Proportion of subjects with HIV-1 RNA <400 copies/mL [3, 13]: 107/164 (65.2) %
Proportion of subjects with HIV-1 RNA <50 copies/mL [3, 14]: 183/290 (63.1) %
Proportion of subjects with HIV-1 RNA <400 copies/mL [3, 14]: 187/290 (64.5) %

CC(C)c1nnc(CO)n1C1C[C@H]2CC[C@@H](C1)N2CC[C@H](NC(=O)C1CCC(F)(F)CC1)c1ccccc1 (some centres unmarked) [hydroxymethylmaraviroc]
CYP3A5 contribution to the formation of this metabolite [1]: 1%

(1R,2R)‐2‐hydroxymaraviroc [(1R,2R)-2-hydroxymaraviroc]
CYP3A5 contribution to the formation of this metabolite [1]: minimal
mean MRAUC12 among black IMs and PMs and white PMs [2]: comparable

(1S,3S)‐3‐hydroxymaraviroc [(1S,3S)-3-hydroxymaraviroc]
CYP3A5 contribution to the formation of this metabolite [1]: minimal
mean MRAUC12 across all cohorts [2]: comparable

Maraviroc
in vivo concentration for 50% inhibition [4]: ~8 ng/mL
subjects who discontinued the study because of lack of efficacy ([3]; EMs (4/43)): 9.3%
subjects who discontinued the study because of lack of efficacy ([3]; IMs (8/85)): 9.4%
subjects who discontinued the study because of lack of efficacy ([3]; PMs (25/175)): 14.3%
Proportion of subjects with HIV-1 RNA <50 copies/mL [3, 15]: 30/43 (69.8) %
Proportion of subjects with HIV-1 RNA <400 copies/mL [3, 15]: 32/43 (74.4) %
Proportion of subjects with HIV-1 RNA <50 copies/mL [3, 16]: 53/85 (62.4) %
Proportion of subjects with HIV-1 RNA <400 copies/mL [3, 16]: 61/85 (71.8) %
Proportion of subjects with HIV-1 RNA <50 copies/mL [3, 17]: 126/175 (72.0) %
Proportion of subjects with HIV-1 RNA <400 copies/mL [3, 17]: 132/175 (75.4) %
Proportion of subjects with HIV-1 RNA <50 copies/mL [3, 18]: 209/303 (69.0) %
Proportion of subjects with HIV-1 RNA <400 copies/mL [3, 18]: 225/303 (74.3) %
Proportion of subjects with HIV-1 RNA <50 copies/mL [3, 19]: 23/43 (53.5) %
Proportion of subjects with HIV-1 RNA <400 copies/mL [3, 19]: 26/43 (60.5) %
Proportion of subjects with HIV-1 RNA <50 copies/mL [3, 20]: 47/85 (55.3) %
Proportion of subjects with HIV-1 RNA <400 copies/mL [3, 20]: 52/85 (61.2) %
Proportion of subjects with HIV-1 RNA <50 copies/mL [3, 21]: 109/175 (62.3) %
Proportion of subjects with HIV-1 RNA <400 copies/mL [3, 21]: 117/175 (66.9) %
Proportion of subjects with HIV-1 RNA <50 copies/mL [3, 22]: 179/303 (59.1) %
Proportion of subjects with HIV-1 RNA <400 copies/mL [3, 22]: 195/303 (64.4) %
proportions of subjects with HIV-1 RNA <50 and <400 copies/mL among all 3 CYP3A5 genotypes ([3]; weeks 48 and 96): comparable
blacks with viral load <50 copies/mL ([5]; once-daily maraviroc group): 28%
blacks with viral load <50 copies/mL ([5]; twice-daily maraviroc group): 26%
Cavg associated with near-maximal virologic efficacy [6]: 75 ng/mL

Source: article PMC6586010 (Journal of Clinical Pharmacology, 2018)
